Here are results for 5 molecules from PubChem BioAssay (NCI).

Holding throughout (assay): growth of human tumour cells (NCI), 48 h
Assay [1] deals with RXF 393 renal.
Assay [2] relates to MDA-MB-231 breast.
The test system of assay [3] is SK-MEL-5 melanoma.
Assay [4] concerns UACC-257 melanoma.
Assay [5] deals with SK-OV-3 ovarian.
The subject of assay [6] is MALME-3M melanoma.
For assay [7], the system named is MCF7 breast.
The subject of assay [8] is HCT-15 colon.
The subject of assay [9] is HOP-92 NSCLC.
Assay [10] deals with K-562 leukemia.
Assay [11] relates to HCT-116 colon.
The test system of assay [12] is HS 578T breast.

Molecules are shown by their SMILES. Converted amounts (≈) assume the structure as drawn.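 Following 48 hours of exposure in 96-well plates, responses at five concentrations were used to interpolate endpoints linearly. Abbreviation: GI50, concentration required for 50% inhibition of growth. TGI: total growth inhibition.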

As to `c1ccc(C2=NN2c2ccccc2)cc1`, the TGI in assay [1], in assay [2], in assay [3], in [4], in assay [5] and in assay [6] was > 100 µM in each case. Moreover, the TGI in assay [7], in [8], in [9] and in [10] was > 100 µM throughout.

In the case of `CC1(C)OCC(CO)(CO)CO1`, the TGI in [1], in assay [2], in assay [3], in assay [4], in [5] and in assay [7] was > 100 µM each time. For the same molecule, the TGI in assay [11], in [12], in assay [8], in [9] and in assay [10] was > 100 µM in each case.

Regarding `O=Cc1cn(CCCCCCCCn2cc(C=O)c3ccccc32)c2ccccc12`, the TGI in [1], in [2], in assay [3], in assay [5], in [6] and in assay [7] was > 10 µM throughout. In addition, the TGI in assay [11], in [12], in assay [8] and in assay [10] was > 10 µM in each case.

For `O=C=C=P(c1ccccc1)(c1ccccc1)c1ccccc1`, the TGI is > 100 µM in [1]; 46.2 µM in assay [3]; > 100 µM in assay [4]; > 100 µM in [5]; > 100 µM in assay [6]; > 100 µM in [11]. In addition, the TGI in assay [8] is > 100 µM; in assay [9] it was 85.1 µM; in assay [10], > 100 µM.

For `Cc1nc2nc(C)n(CCN3CCOCC3)c(=O)c2c(-c2cccc([N+](=O)[O-])c2)c1C(=O)CCCCCCCCCCN1CCC(c2ccccc2)(c2ccccc2)CC1`, the GI50 was 1.68 µg/mL (≈ 2.07 µM) in [2]; 2.3 µg/mL (≈ 2.83 µM) in [3]; 2.24 µg/mL (≈ 2.75 µM) in [6]; 1.67 µg/mL (≈ 2.06 µM) in [7]; 1.63 µg/mL (≈ 2 µM) in assay [11]; 1.32 µg/mL (≈ 1.62 µM) in [8]. In addition, the GI50 in assay [9] is 0.0976 µg/mL (≈ 0.12 µM). The TGI in assay [2] amounted to 3.53 µg/mL; in assay [3] it was 4.3 µg/mL; in assay [6], 4.22 µg/mL; in assay [7], 3.65 µg/mL; in [11], 3.45 µg/mL; in assay [8] it was 3.17 µg/mL. The molecule further displayed a TGI in assay [9] of 1.25 µg/mL.
